Reference: patent US6982277B2, “P53 inhibitors and therapeutic use of the same” (The Board of Trutees of the University of Illinois, priority 1999, dated 2006)
“Also recorded” adds a separate entry of the source.

Columns and labels:
p53 [1] = test: long-term survival and cancer development of mice after whole body radiation; format: in vivo; details: 30 survivors rescued from lethal gamma irradiation, seven months after irradiation
Protocol: Both wild-type (wt) mice and p53-deficient mice were irradiated. One group of the wild-type mice were treated with PFT-α. […] In contrast, fifteen untreated wild-type mice died within 100 days. The p53-deficient mice were unaffected for about 125 days, then all expired over the next 25–30 days.
Suppression of p53 typically results in the survival of cells that otherwise are eliminated by p53, which can increase the risk of new cancer development. For example, p53-deficient mice are extremely sensitive to radiation-induced tumorigenesis. […] Thus, temporary suppression of p53 activity is different from p53 deficiency in terms of cancer predisposition.

p53 [2] = test: tests and experiments of FIGS. 1–15 repeated using PFT-β
From the text: The results of these tests are illustrated in attached FIGS. 1–16. These figures, in general, are based on tests performed on compounds of structural formulae (V) and (VI). In the following Figures, test results illustrated for compound (V), i.e., PFT-α, were repeated for compound (VI), i.e., PFT-β.
(§1) As previously stated, the tests and experiments set forth in FIGS. 1–15 using PFT-α were repeated using PFT-β.

[3] = toxicity comparison (FIG. 16); details: compared with PFT-α
Protocol: Then, a p53 inhibitor was applied in a concentration of 1 μM to 20 μM to the test cells in the presence of the p53 activator. Cytotoxicity of the p53 inhibitors also was determined by standard assays. An estimation of antiapoptotic activity of the p53 inhibitor compounds was based on an ability to suppress apoptotic cell death in standard cell systems sensitive to p53-dependent apoptosis (i.e., mouse embryonic fibroblasts transformed with Ela+ras, line C8, described by S. W. Lowe et al., Cell, 74, pp. 957–968 (1993)). p53 dependence of the compound activity was analyzed by testing its effect on p53-deficient cells (i.e., radiosensitivity or drug sensitivity of p53−/− mouse embryonic fibroblasts transformed with Ela+ras, line A4, described by Lowe et al., 1993).
as §1

p53 [4] = test: p53 protein in UV-irradiated ConA cells (immunoblotting, two-dimensional gel, nuclear and cytoplasmic fractions); format: cell-based, mouse
Protocol: PFT-α was added to the cells before UV treatment and total cell lysates were prepared 18 hours later.
FIG. 6(d) illustrates that PFT-α changes the nuclear and cytoplasmic distribution of p53. Nuclear and cytoplasmic fractions were isolated from UV-treated ConA cells 6 hours after UV irradiation. p53 and p21^waf1 proteins were detected by immunoblotting. […] In particular, results of a gel shift assay using cell lysates from either untreated or UV-irradiated ConA cells grown in medium containing PFT-α are shown. […] The decline in the amount of bound DNA is proportional to the overall decrease in p53 content in the presence of PFT-α.

p53 [5] = test: survival of mice after whole-body gamma irradiation; format: in vivo, mouse; details: 2.2 mg/kg i.p. five minutes prior to irradiation
Protocol: In particular, FIG. 7 illustrates that pifithrin-alpha protects mice from radiation-induced death. In this test, two different strains of mice (C57BL and Balb(c)) were treated with lethal and sublethal doses of whole-body gamma radiation. A comparison was made between (i) untreated unirradiated mice, (ii) unirradiated mice that received a single intraperitoneal (i.p.) injection of PFT-α, (iii) untreated gamma-irradiated mice, and (iv) mice injected intraperitoneally with PFT-α immediately before gamma irradiation.
In the plots of FIG. 7, whole-body gamma irradiated mice (60 total) were divided into four groups. Ten mice from each group were injected i.p. with pifithrin-alpha (2.2 mg/kg) five minutes prior to irradiation. […] The experiments were repeated at least three times with 10 mice per each experimental subgroup.

p53 [6] = test: 14C-thymidine incorporation in tissues of gamma-irradiated mice (autoradiograms); format: in vivo, mouse; details: 10 Gy; single i.p. injection 2.2 mg/kg five minutes before irradiation
Protocol: Four-week-old p53-deficient mice and p53 wild-type (wt) mice were whole body gamma irradiated (10 Gy). Pifithrin-alpha was injected in one of the p53 wild-type animals five minutes before irradiation. ^14C-thymidine (10 mCi per animal) was injected intraperitoneally into each mouse 8 hours after irradiation. The mice were sacrificed 24 hours after irradiation and whole body sectioned (25 μm thick) using cryostatic microtome were prepared and exposed to X-ray film to monitor the distribution of ^14C in the tissue. FIG. 8 presents autoradiograms of representative sections. Arrows indicate ^14C-thymidine incorporation in the skin and intestine.

[7] = toxicity of chemotherapeutics with p53 inhibitor; details: mouse, in vivo
[8] = tested on: p53-deficient tumor xenografts; test: therapy response of p53-deficient tumors in mice; format: in vivo, mouse; details: mouse, in vivo
From the text: The above-described tests using PFT-α and PFT-β illustrate the therapeutic use of temporary p53 inhibitors to reduce the side effects of radiation therapy or chemotherapy for human cancers that have lost functional p53.

tumor = tumor volume in C57BL mice treated with cyclophosphamide; format: in vivo, mouse; details: CTX at days 0, 1, and 2, sixteen days
Protocol: FIG. 15 is a plot of tumor volume vs. days for C57BL mice treated with cyclophosphamide (CTX), with and without administration of PFT-β. The mice were treated with CTX at days 0, 1, and 2, and tumor volume was monitored for sixteen days.

p53 [9] = test: suppression of p53-dependent transcriptional activation (lacZ, X-gal staining) in ConA cells treated with doxorubicin; format: cell-based, mouse; details: 0.2 μg/ml doxorubicin, 24 hours; test compounds about 10 to about 20 μM

Row | Compound | tumors or pathological lesions in survivors / tumor incidence in irradiated animals (p53 [1]) | test results compared with PFT-α (p53 [2]) | toxicity [3] | nuclear and cytoplasmic distribution of p53 (p53 [4]; 6 hours after UV irradiation) | phosphorylation / post-translational modifications of p53 (p53 [4]; after DNA-damaging treatments) | survival at higher, lethal doses of irradiation (p53 [5]) | p53-mediated growth arrest in vivo (14C-thymidine incorporation) (p53 [6]) | toxicity of chemotherapeutics [7] | efficacy of chemo- or radiation therapy of p53 deficient mouse tumors [8] | tumor growth (tumor volume) (tumor) | suppression of p53-dependent lacZ expression (X-gal) (p53 [9])
1 | Cc1ccc(-c2cn3c4c(sc3n2)CCCC4)cc1 [PFT-β, 2-(4-methylphenyl)-5,6,7,8-tetrahydrobenzo[d]imidazo[2,1-b]thiazole] | do not result in a high incidence of tumors in irradiated animals | essentially identical to test results using PFT-α; also recorded: essentially identical to the results from the tests using PFT-α | substantially lower than the toxicity of PFT-α | reduce nuclear accumulation of p53 | do not effect either post-translational modifications of p53 or the DNA binding affinity of p53 | rescue mice from lethal doses of gamma radiation using a single i.p. injection | suppress p53-dependent radiation-induced growth arrest in rapidly proliferating mouse tissues | reduce the toxicity of chemotherapeutics | do not reduce the efficacy of chemo- or radiation therapy of p53 deficient mouse tumors | substantial decrease in tumor growth | 
2 | N=c1sc2c(n1CC(=O)c1ccc(I)cc1)CCCC2 [86B10, 2-[2-imino-4,5,6,7-tetrahydro-1,3-benzothiazol-3(2H)-yl]-1-(4-iodophenyl)-1-ethanone] |  |  |  |  |  |  |  |  |  |  | similar, but weaker, p53-inhibition, effect than PFT-α
